Reference: US8119599B2, “Direct application of non-toxic crosslinking reagents to resist progressive spinal degeneration and deformity” (Orthopeutics, L.P., priority 2001, dated 2012)
Values joined by “and” are separate entries in the source; they are usually repeats but may differ in a detail not shown here. Equal entries are not always repeated.

Columns and labels:
[1] = system: calf spine segments (intervertebral disc annular tissue); test: Four-point lateral bending test of spine segments after unilateral injection of crosslinking reagent; settings: for Change in Stiffness: Compression side / Change in Stiffness: Tensionon side: neutral zone bending stiffness versus pre-treatment control; for Change in Stiffness: Compression side: treated side in compression; for Change in Stiffness: Tensionon side / Loss of Hysteresis: treated side in tension; for Loss of Hysteresis: versus pre-treatment control of same specimen
Source text: Experiments utilized 5 calf spine segments, each segment comprised of 3 lumbar intervertebral joints (motion segments), four vertebrae and the intervening 3 discs. The pedicles were cut and the posterior processes removed. The segments were randomly divided into a 0.33% by weight genipin crosslinked group, a 0.5% genipin group, a 0.66% genipin group, and a 0.66% genipin plus 0.1% proanthocyanidin group. Each group consisted of one 3 motion segment specimen. Each pre-treated spine served as its own control. Repeated testing was performed on some untreated and treated specimens to determine repeatability of the measurements. Additional appropriate concentrations and combinations of known minimally cytotoxic crosslinking reagents will be chosen based on the documented cytotoxicity of a particular tissue. […] Similar testing will be conducted on fresh-non-frozen animal tissue with appropriate sterilization procedures and antibiotics to prevent tissue degradation. Sugar solutions will be injected unilaterally into fresh intervertebral discs to induce non-enzymatic glycation crosslinks over a period of sterile incubation.
Four-point lateral bending tests were conducted using an MTS 858 materials testing system with custom fixtures while load and displacement were recorded digitally. First the specimens were cleaned of muscle and other non-load supporting tissues, and then the terminal vertebrae were potted in polyurethane to half their height in square molds. The potted spine segments are then placed on the bottom 2 rollers such that the lateral sides of the spines were positioned in a vertical plane. The bending load was actuated by 2 upper rollers in contact with the central two vertebrae of the segment. Care was taken to ensure that the pre- and post-treatment positioning of the specimens on the rollers was similar. As an attribute of 4-point bending, the central region of the test specimen, including the central disc between the 2 upper rollers, has an […] bending moment. A ramp load to 100 N (0.5 mm/s) was applied in right and left lateral bending to each spine both prior to treatment and after crosslinking treatment.
The crosslinking reagents were delivered to each of the discs in each spine specimen by 2 to 3 injections into one lateral side of the spine. Each injection was comprised of 1 cc of reagent. A 26 gauge hypodermic needle was used. The treated segments were allowed to sit in a closed container wrapped in moist paper towels for 36 hours prior to final testing. After testing, the discs were cut transversely to visually document the region of the tissue contacted by the reagents.
Resistance to lateral bending and lateral bending stability were assessed by two measures, one elastic-plastic, the other viscoelastic. The first was the neutral zone (low-load) bending stiffness evidenced by the amount of deformation from 0.1 to 100 N of deforming force. The second was the hysteresis or bending energy lost or not stored by the tissues. Less hysteresis, or a lower percentage of hysteresis compared to strain energy or the amount of bending energy stored and returned, corresponds to greater capacity to bounce back from a bend rather than remain in the deformed position. It also reflects a more elastic, spring-like response as compared to a more viscous response.

[2] = system: posterior intervertebral disc (lumbar intervertebral joints); test: Indentation stress relaxation of posterior annulus before and after compression/flexion fatigue cycling; design: species or system calf; settings: for change in relaxation due to 6000 fatigue cycles versus controls (fatigue resistance): 72 hours soaking (G1 0.033%, G2 0.33% Genipin in PBS), 6000 cycles at 200 N, 0.25 Hz; for initial pre-fatigue relaxation less than the pre-fatigue relaxation of the controls: 72 hours soaking in PBS with Genipin (G1 0.033%, G2 0.33%), before fatigue cycling
Procedure: (§1) Thirty-three lumbar intervertebral joints were obtained from ten four-month-old calf spines. The intervertebral joints were arbitrarily divided into 3 groups: untreated controls-12 specimens, Genipin treatment 1 (G1)-6 specimens, and Genipin treatment 2 (G2)-13 specimens. The G1 treatment involved 72 hours of soaking the whole specimen in PBS with a 0.033% concentration of Genipin. Similarly the G2 treatment involved 72 hours of soaking whole specimens in PBS with 0.33% concentration of Genipin. 0.33% Genipin in PBS is produced by dilution of 50 ml of 10 times. PBS (Phosphate Buffered Saline) with distilled water by a factor of 10 to give 500 ml (500 gm) of PBS and mixing in 1.65 grams of genipin to produce the 0.33% (wt %, gm/gm) solution. […] Some controls were not subjected to soaking prior to fatigue testing. Others were soaked in a saline solution for 72 hours. Water mass loss experiments were conducted to establish the equivalency of outer annulus hydration between the genipin soaked and 0.9% saline soaked controls. The selection of treatments was randomized by spine and level. The vertebral ends of the specimens were then potted in polyurethane to facilitate mechanical testing. At the prescribed points in the loading regimen, indentation testing was used to find viscoelastic properties as follows. Stress relaxation data was gathered by ramp loading the 3 mm diameter hemi-spherical indenter to 10 N and subsequently holding that displacement for 60 s, while recording the resulting decrease in stress, referred to as the stress relaxation. Indentation testing was also utilized to determine elastic-plastic properties by calculating a hardness index (resistance to indentation) from ramp loading data. Prior to recording hardness measurements, the tissue is repeatedly indented 10 times (60 s/cycle, to the displacement at an initial 10 N load). This test protocol is based on two principles. First, viscoelastic effects asymptotically decrease with repeated loading. Secondly, hardness measurements are sensitive to the loading history of the tissue. However this effect becomes negligible following 10 loading cycles. In order to minimize these effects, viscoelastic data (stress relaxation) was collected from tissue that had not previously been indented. Alternately, elastic-plastic data (hardness) was collected from tissue that had been repeatedly loaded (preconditioned). In this case, repetitive indentation was intended to reduce the undesired effects of the changing viscoelastic properties, namely lack of repeatability, on hardness measurements. These testing procedures were derived from several preliminary experiments on the repeatability of the measurements with variations of loading history and location. Following initial indentation testing, the specimen was loaded repetitively in flexion-compression at 200 N for 3000 cycles at a rate of 0.25 Hz. The load was applied perpendicularly to the transverse plane, 40 mm anterior to the mid-point of the specimen in the transverse plane. A second set of indentation testing data is then collected following fatigue cycling. This procedure was followed for two fatigue loading cycles. During all testing, the specimens were wrapped in saline wetted gauze to maintain their moisture content. […] Several statistical measures were calculated to evaluate the significance of the results. […]

[3] = system: posterior intervertebral disc (lumbar intervertebral joints); test: Indentation hardness of posterior annulus before and after compression/flexion fatigue cycling; design: species or system calf; settings: for persistence of hardness improvement under fatigue cycling: 0.33% Genipin soak, up to 3000 fatigue cycles
Procedure: as §1, with “measurements.” for “measurements. These testing procedures were derived from several preliminary experiments on the repeatability of the measurements with variations of loading history and location. Following initial indentation testing, the specimen was loaded repetitively in flexion-compression at 200 N for 3000 cycles at a rate of 0.25 Hz. The load was applied perpendicularly to the transverse plane, 40 mm anterior to the mid-point of the specimen in the transverse plane. A second set of indentation testing data is then collected following fatigue cycling. This procedure was followed for two fatigue loading cycles. During all testing, the specimens were wrapped in saline wetted gauze to maintain their moisture content.”

[4] = system: intervertebral discs (nucleus pulposus, inner and outer annulus fibrosus); test: Hydration change / fluid flux of disc regions after soaking, creep loading and resoaking; design: species or system calf (4 month old bovine); settings: for Water content, Gr C2: 0.33% Genipin 2 days, then 750N creep loading 1 hour; for % increase by Genipin (flux versus control) / Genipin Flux / % increase by Genipin (fluid flow into and out of the nucleus versus control): 0.33% genipin; for Water content, Gr B2: 1 day PBS then 2 days 0.33% genipin solution; for Water content, Gr D2: 0.33% genipin 2 days, 750N creep 1 hour, PBS another day
Source text: By measuring the change in hydration of different regions of the intervertebral disc (nucleus pulposus, inner annulus, and outer annulus fibrosus) prior to and after periods of soaking, sustained compressive loading, and resoaking, the fluid flux to and from different regions can be determined. By comparing these measurements between control discs and discs treated with crosslinking reagents known to have minimal cytotoxicity, we see the effect of crosslinking treatment on fluid flux and permeability. A total of 24 calf (4 month old bovine) intervertebral discs were used for this study. Water content of three different areas of the […] tissue were tested-the nucleus pulposus, inner annulus fibrosus and outer annulus fibrosus. Hydration change was determined by weighing the specimen using a micro-balance (sensitivity: 0.1 mg). Water content (M) was calculated as: M=(Wet Weight-Dry Weight)/Wet Weight=g H2O/g Wet Weight The drying procedure consisted of putting the specimens in the oven with a controlled temperature of 90 degree C. for 24 hours. The specimens were separated into four tests: 1. Group A: Three specimens were in this group. It served as a control group. The specimens were soaked in PBS (phosphate buffered saline) for 1 day and then the hydration analysis was performed. 2. Group B1: Four specimens were in this group. In addition to the one day PBS soaking, the specimens soaked in PBS for 2 more days as a control and then the hydration analysis was performed. Group B2: Five specimens were in this group. In addition to the one day PBS soaking, the specimens were soaked in 0.33% genipin solution for 2 days and then the hydration analysis was performed. 3. In group C, a small daytime amount of constant compressive loading (creep) was simulated. C1: Three specimens were in this group. The specimens were soaked in PBS for 3 days and then […] of compression was applied by a materials testing machine for 1 hour. The disc was compressed in a 5 degree of flexion posture produced by two rollers attached to the loading ram of the materials testing machine. The hydration analysis was performed immediately after the creep loading. C2: Three specimens were in this group. The specimens were soaked in 0.33% Genipin solution for 2 days after 1 day of PBS soaking and performed identical creep loading with […] compressive load. The hydration analysis was performed immediately after the creep loading. 4. In group D, the imbibition of water following a period of compressive loading that typically occurs in the night time as a person is in a recumbent posture was simulated. D1: The specimens were soaked in PBS solution for 3 days and then 1 hour of creep loading at 750 N was applied. After the creep loading, the specimens were placed in a container in 1 PBS for one more day followed by the hydration analysis. D2: Three specimens were included and were soaked in 0.33% genipin solution for 2 days after one day of PBS soaking. A creep load of […] for one hour was then applied. The specimens were put in PBS for another day followed by the hydration analysis.

[5] = system: annulus fibrosus specimens from lumbar intervertebral discs; test: Radial tear resistance test of annulus fibrosus specimens; design: species or system bovine; settings: soaked two days in 0.15M PBS plus 0.33% genipin
Source text: Ten annulus fibrosus circumferentially aligned specimens from bovine lumbar (T12-L5) intervertebral discs were divided into two groups and either soaked two days in a 0.15M PBS or a 0.15M PBS plus 0.33% genipin solution. A custom loading fixture attached to a uniaxial materials testing system was designed to hold an annulus specimen perpendicular to the travel of a metal cylinder placed in a pre-existing radial cut. The cylinder was then pulled radially (perpendicular to lamellae) towards the external layer. Time dependent force and displacement data was acquired simultaneously. Tearing resistance was quantified in two ways: peak force normalized by specimen thickness and tearing energy per area of tear. Differences between groups were analyzed using the Mann-Whitney non-parametric test.

[6] = compared to other more commonly used crosslinking agents; cited from earlier work
[7] = system: collagenous, load-supporting tissues; settings: compared with other crosslinking reagents (Sung 1999b); cited from earlier work

In the case of `COC(=O)C1=CO[C@@H](O)[C@@H]2C(CO)=CC[C@H]12` [0.66G, genipin], the “Change in Stiffness: Compression side” value [1] is reported as 8%, the “Change in Stiffness: Tensionon side” value [1] is reported as 6% and the “Loss of Hysteresis” value [1] is reported as 20%.

In the case of `COC(=O)C1=CO[C@@H](O)[C@@H]2C(CO)=CC[C@H]12` [0.50G, genipin], the “Change in Stiffness: Compression side” value [1] is reported as −12% and −22% and the “Change in Stiffness: Tensionon side” value [1] is reported as 8% and 0.43%.

With `COC(=O)C1=CO[C@@H](O)[C@@H]2C(CO)=CC[C@H]12` [G2, Genipin] the “change in relaxation due to 6000 fatigue cycles versus controls (fatigue resistance)” value [2] was “less than a third of the change in the controls”, the “initial pre-fatigue relaxation less than the pre-fatigue relaxation of the controls” value [2] was 19% and the “persistence of hardness improvement under fatigue cycling” value [3] was “appears to have eroded prior to 3000 fatigue cycles”. The “change in hardness between 3000 and 6000 cycles” value ([3]; G2: 0.33% Genipin, Brinnell's hardness index) was −0.94 and the “initial pre-fatigue hardness greater than that of the control group” value ([3]; G2: 72 hours soaking in PBS with 0.33% Genipin, before fatigue cycling) was 17%.

With `COC(=O)C1=CO[C@@H](O)[C@@H]2C(CO)=CC[C@H]12` [genipin] the “reduction in viscoelastic degradation” value ([2]; soaking calf disc tissue in 0.33% concentration of genipin) was “More than a three-fold reduction”, the “persistence of hardness improvement under fatigue cycling” value [3] was “unable to sustain an improvement in the elastic mechanical properties (hardness) to 3000 test cycles” and the “Water content, Gr C2” value ([4]; Inner AF) was 0.7394 g H2O/g Wet Weight. The “% increase by Genipin (flux versus control)” value ([4]; Inner AF) was 17.3%, the “Genipin Flux” value ([4]; Inner AF) was 0.1008 and the “Water content, Gr B2” value ([4]; Inner AF) was 0.7629 g H2O/g Wet Weight. The “Water content, Gr C2” value ([4]; NP) was 0.817 g H2O/g Wet Weight, the “% increase by Genipin (fluid flow into and out of the nucleus versus control)” value ([4]; NP) was 64% and the “Genipin Flux” value ([4]; NP) was 0.04983. For the same compound, the “Water content, Gr D2” value ([4]; NP) was 0.8524 g H2O/g Wet Weight, the “% increase by Genipin (fluid flow into and out of the nucleus versus control)” value ([4]; NP, listed as Genipin) was 63.7% and the “Water content, Gr B2” value ([4]; NP) was 0.8314 g H2O/g Wet Weight. The “Water content, Gr C2” value ([4]; Outer AF) was 0.6924 g H2O/g Wet Weight, the “% increase by Genipin (flux versus control)” value ([4]; Outer AF) was 5.7% and the “Genipin Flux” value ([4]; Outer AF) was 0.05294. For the same compound, the “Water content, Gr D2” value ([4]; Outer AF) was 0.711 g H2O/g Wet Weight, the “Water content, Gr B2” value ([4]; Outer AF) was 0.7268 g H2O/g Wet Weight and the “Normalized peak force (peak force normalized by specimen thickness)” value [5] was 42.7 N/mm. The “Total energy per area of tear” value [5] was 40.2 mJ/mm^2, the cytotoxicity [6] was “significantly less cytotoxicity” and the “ultimate tensile strength and toughness” value [7] was “greater ultimate tensile strength and toughness”.

With `COC(=O)C1=CO[C@@H](O)[C@@H]2C(CO)=CC[C@H]12` [0.33G, genipin] the “Change in Stiffness: Compression side” value [1] was 29%, the “Change in Stiffness: Tensionon side” value [1] was 17% and the “Loss of Hysteresis” value [1] was 35%.

With `COC(=O)C1=CO[C@@H](O)[C@@H]2C(CO)=CC[C@H]12` [G1, Genipin] the “change in relaxation due to 6000 fatigue cycles versus controls (fatigue resistance)” value [2] was “did not bring about the same improvement in fatigue resistance” and the “initial pre-fatigue relaxation less than the pre-fatigue relaxation of the controls” value [2] was 26%.
